# According to PubChem BioAssay (NCI):
#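 Dose response: 5 concentrations. Exposure: 48 h. Format: 96-well plates. Endpoint: linear interpolation; highest concentration if not reached. GI50 = concentration required for 50% inhibition of growth. TGI marks complete inhibition of growth.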
# Assays:
# Experiment in all cases: inhibition of tumour cell growth, NCI panel, 48 h
# MCF7 breast = test system: MCF7 breast
# A498 renal = test system: A498 renal
# UACC-62 melanoma = test system: UACC-62 melanoma
# NCI-H226 lung = test system: NCI-H226 lung
# HOP-92 NSCLC = test system: HOP-92 NSCLC
# RXF 393 renal = test system: RXF 393 renal
# K-562 leukemia = test system: K-562 leukemia
# TK-10 renal = test system: TK-10 renal
# SNB-75 CNS = test system: SNB-75 CNS
# UACC-257 melanoma = test system: UACC-257 melanoma
# OVCAR-5 ovarian = test system: OVCAR-5 ovarian
# HCT-116 colon = test system: HCT-116 colon
# PC-3 prostate = test system: PC-3 prostate
# HCT-15 colon = test system: HCT-15 colon
# SW-620 colon = test system: SW-620 colon
# A549 NSCLC = test system: A549 NSCLC
# OVCAR-8 ovarian = test system: OVCAR-8 ovarian
# NCI-H522 lung = test system: NCI-H522 lung
# DU-145 prostate = test system: DU-145 prostate
# SK-MEL-5 melanoma = test system: SK-MEL-5 melanoma
# HOP-62 NSCLC = test system: HOP-62 NSCLC
# EKVX NSCLC = test system: EKVX NSCLC
# SNB-19 CNS = test system: SNB-19 CNS
# MDA-MB-435 = test system: MDA-MB-435
# BT-549 breast = test system: BT-549 breast
# SF-295 CNS = test system: SF-295 CNS
# MALME-3M melanoma = test system: MALME-3M melanoma
# HT29 colon = test system: HT29 colon
# NCI/ADR-RES ovarian = test system: NCI/ADR-RES ovarian
# HL-60(TB) leukemia = test system: HL-60(TB) leukemia
# MOLT-4 leukemia = test system: MOLT-4 leukemia
# ACHN renal = test system: ACHN renal
# SF-539 CNS = test system: SF-539 CNS
# SK-MEL-28 melanoma = test system: SK-MEL-28 melanoma
# SR leukemia = test system: SR leukemia
# CAKI-1 renal = test system: CAKI-1 renal
# U251 CNS = test system: U251 CNS
# NCI-H460 lung = test system: NCI-H460 lung
# HCC-2998 colon = test system: HCC-2998 colon
# SK-OV-3 ovarian = test system: SK-OV-3 ovarian
# OVCAR-4 ovarian = test system: OVCAR-4 ovarian
# LOX IMVI melanoma = test system: LOX IMVI melanoma
# KM12 colon = test system: KM12 colon
# UO-31 renal = test system: UO-31 renal
# NCI-H23 lung = test system: NCI-H23 lung
# MDA-MB-231 breast = test system: MDA-MB-231 breast
# IGROV1 ovarian = test system: IGROV1 ovarian
# COLO 205 colon = test system: COLO 205 colon
# HS 578T breast = test system: HS 578T breast
# M14 melanoma = test system: M14 melanoma
# SF-268 CNS = test system: SF-268 CNS
# T-47D breast = test system: T-47D breast
# 786-0 renal = test system: 786-0 renal
# SN12C renal = test system: SN12C renal
# CCRF-CEM leukemia = test system: CCRF-CEM leukemia
compound,measurement,setting,value
C#C[C@]1(O)CC[C@H]2[C@@H]3CC=C4c5sc(Nc6cccc(C)n6)nc5CC[C@]4(C)[C@H]3CC[C@@]21C,GI50,MCF7 breast,1.24 µM
same,TGI,MCF7 breast,3.52 µM
same,GI50,A498 renal,1.28 µM
same,TGI,A498 renal,2.62 µM
same,GI50,UACC-62 melanoma,1.49 µM
same,TGI,UACC-62 melanoma,3.3 µM
same,GI50,NCI-H226 lung,2.69 µM
same,TGI,NCI-H226 lung,12.1 µM
same,GI50,HOP-92 NSCLC,1.59 µM
same,TGI,HOP-92 NSCLC,4.15 µM
same,GI50,RXF 393 renal,0.23 µM
same,TGI,RXF 393 renal,0.579 µM
same,GI50,K-562 leukemia,0.666 µM
same,TGI,K-562 leukemia,3.1 µM
same,GI50,TK-10 renal,2.46 µM
same,TGI,TK-10 renal,7.67 µM
same,GI50,SNB-75 CNS,1.09 µM
same,TGI,SNB-75 CNS,8.32 µM
same,GI50,UACC-257 melanoma,1.62 µM
same,TGI,UACC-257 melanoma,3.46 µM
same,GI50,OVCAR-5 ovarian,1.7 µM
same,TGI,OVCAR-5 ovarian,3.78 µM
same,GI50,HCT-116 colon,1.35 µM
same,TGI,HCT-116 colon,3.04 µM
same,GI50,PC-3 prostate,0.979 µM
same,TGI,PC-3 prostate,5.54 µM
same,GI50,HCT-15 colon,1.13 µM
same,TGI,HCT-15 colon,2.71 µM
same,GI50,SW-620 colon,1.56 µM
same,TGI,SW-620 colon,3.09 µM
same,GI50,A549 NSCLC,1.89 µM
same,TGI,A549 NSCLC,8.31 µM
same,GI50,OVCAR-8 ovarian,1.45 µM
same,TGI,OVCAR-8 ovarian,4.78 µM
same,GI50,NCI-H522 lung,1.66 µM
same,TGI,NCI-H522 lung,3.26 µM
same,GI50,DU-145 prostate,2.8 µM
same,TGI,DU-145 prostate,12 µM
same,GI50,SK-MEL-5 melanoma,1.84 µM
same,TGI,SK-MEL-5 melanoma,3.7 µM
same,GI50,HOP-62 NSCLC,1.33 µM
same,TGI,HOP-62 NSCLC,2.93 µM
same,GI50,EKVX NSCLC,1.39 µM
same,TGI,EKVX NSCLC,10.1 µM
same,GI50,SNB-19 CNS,1.2 µM
same,TGI,SNB-19 CNS,3.82 µM
same,GI50,MDA-MB-435,2.24 µM
same,TGI,MDA-MB-435,6.44 µM
same,GI50,BT-549 breast,1.49 µM
same,TGI,BT-549 breast,3.31 µM
same,GI50,SF-295 CNS,0.329 µM
same,TGI,SF-295 CNS,1.36 µM
same,GI50,MALME-3M melanoma,1.4 µM
same,TGI,MALME-3M melanoma,3.36 µM
same,GI50,HT29 colon,1.5 µM
same,TGI,HT29 colon,3.17 µM
same,GI50,NCI/ADR-RES ovarian,1.82 µM
same,TGI,NCI/ADR-RES ovarian,7.41 µM
same,GI50,HL-60(TB) leukemia,0.71 µM
same,TGI,HL-60(TB) leukemia,3.46 µM
same,GI50,MOLT-4 leukemia,0.552 µM
same,TGI,MOLT-4 leukemia,3.05 µM
same,GI50,ACHN renal,1.2 µM
same,TGI,ACHN renal,3.55 µM
same,GI50,SF-539 CNS,0.28 µM
same,TGI,SF-539 CNS,1.17 µM
same,GI50,SK-MEL-28 melanoma,0.543 µM
same,TGI,SK-MEL-28 melanoma,2.28 µM
same,GI50,SR leukemia,0.403 µM
same,TGI,SR leukemia,2.09 µM
same,GI50,CAKI-1 renal,1.53 µM
same,TGI,CAKI-1 renal,4.34 µM
same,GI50,U251 CNS,0.558 µM
same,TGI,U251 CNS,1.93 µM
same,GI50,NCI-H460 lung,1.46 µM
same,TGI,NCI-H460 lung,3.04 µM
same,GI50,HCC-2998 colon,2.19 µM
same,TGI,HCC-2998 colon,5.52 µM
same,GI50,SK-OV-3 ovarian,1.37 µM
same,TGI,SK-OV-3 ovarian,3.25 µM
same,GI50,OVCAR-4 ovarian,3.02 µM
same,TGI,OVCAR-4 ovarian,16.8 µM
same,GI50,LOX IMVI melanoma,1.39 µM
same,TGI,LOX IMVI melanoma,2.79 µM
same,GI50,KM12 colon,1.85 µM
same,TGI,KM12 colon,5.99 µM
same,GI50,UO-31 renal,1.14 µM
same,TGI,UO-31 renal,2.56 µM
same,GI50,NCI-H23 lung,1.57 µM
same,TGI,NCI-H23 lung,6.03 µM
same,GI50,MDA-MB-231 breast,1.24 µM
same,TGI,MDA-MB-231 breast,3.38 µM
same,GI50,IGROV1 ovarian,2.74 µM
same,TGI,IGROV1 ovarian,11.5 µM
same,GI50,COLO 205 colon,1.76 µM
same,TGI,COLO 205 colon,3.38 µM
same,GI50,HS 578T breast,0.343 µM
same,TGI,HS 578T breast,2.02 µM
same,GI50,M14 melanoma,1.52 µM
same,TGI,M14 melanoma,3.57 µM
same,GI50,SF-268 CNS,2.02 µM
same,TGI,SF-268 CNS,7.37 µM
same,GI50,T-47D breast,1.98 µM
same,TGI,T-47D breast,6.64 µM
same,GI50,786-0 renal,0.437 µM
same,TGI,786-0 renal,1.96 µM
same,GI50,SN12C renal,1.62 µM
same,TGI,SN12C renal,3.2 µM
same,GI50,CCRF-CEM leukemia,1.36 µM
same,TGI,CCRF-CEM leukemia,6.35 µM
